Paper PMC11091117, “A fluorescently-tagged tick kinin neuropeptide triggers peristalsis and labels tick midgut muscles” (Scientific Reports, 2024)
“Also recorded” adds a separate entry of the source. Where no end group is shown, it is not given here.

Legend:
[1] = test system: tick kinin receptor (recombinant R. microplus receptor, CHO-K1 BMLK3 cells); test: Cellular end-point fluorescence calcium mobilization assay, BMLK3 cells; type: cell-based, Rhipicephalus microplus
Excerpt: Three peptides were used in this study. These included: 1) the ligand for the endogenous tick kinin receptor from Rhipicephalus sanguineus, Rhisa-kinin 8 peptide of sequence GTGEDQAFSPWGamide (Rhisa-K-8; RK8; of identical sequence to Rhimi-K-8 in Rhipicephalus microplus)[48], 2) the same peptide but fluorescently labeled at the N-terminus with tetramethylrhodamine (TMR) a red fluorescent dye, designated TMR-Rhisa-K-8 (TMR-RK8), and 3) a labeled peptide synthesized with the scrambled sequence of the kinin ligand, designated TMR-Scrambled. The sequence of TMR-RK8 was TMR-C-GTGEDQAFSPWGamide). The TMR-Scrambled kinin (TMR-C-GTQWGPGFEADSamide) served as a negative control for tissue labeling. All peptides were custom-synthesized and purchased from GenScript (Piscataway, NJ, USA) with a purity of ≥ 95% and the cysteine in bold in both sequences was added to attach the label. Experiments were replicated with independently synthesized batches (4 mg each) of labeled and unlabeled peptides, for reproducibility. Unlabeled RK8 was used as a competitive ligand to verify target-specific binding of the labeled TMR-RK8 (see Ligand Competition Assay). For cell assays, the peptide stock solutions (100 µM) were made in 1% dimethyl sulfoxide (DMSO) in Hank’s balanced salt solution (HBSS, Thermo Fisher, Waltham, USA). For fluorescent cell labeling, peptide working solutions (10 µM) were prepared in HBSS from stock solutions. For assays on the midgut, peptides were solubilized and diluted in a tick physiological saline consisting of 140 mM NaCl, 5 mM KCl, 1 mM MgCl2, 5 mM CaCl2, 4 mM NaHCO3, and 5 mM HEPES, pH 7.2[49].
The tick kinin receptor is stably expressed in the recombinant CHO-K1 cell line designated BMLK3 (Boophilus microplus leucokinin receptor 3) that was constructed and selected as described by Holmes, et al.[47]. The CHO-K1 cells had been obtained from the American Type Culture Collection (ATCC) for transfection with the expression construct. This cell line has been kept in the laboratory since 2003. Cells that were transfected only with an empty plasmid are referred to as “vector-only” (V/O) cells and were used as a negative control. Before all experiments, the BMLK3 cell line or V/O cells were separately cultured in T-75 flasks with selective medium (F-12 K medium containing 10% FBS and 800 μgmL^−1 of G418 sulfate) for one to two passages in a humidified incubator at 37 °C and 5% CO2.
A fluorescence-based intracellular calcium mobilization end-point assay described by Xiong, et al.[50] was used to confirm the activity of the TMR-labeled RK8 peptide on a cell line expressing the tick kinin receptor. For this, BMLK3 and V/O cells were cultured in F-12 K medium (1% FBS and 400 μgmL^−1- of G418 Sulfate). The cells were seeded in a 96-well plate with 20,000 cells per well and incubated overnight at 37 °C and 5% CO2. The next morning, cells were prepared for the assay following the manufacturer’s instructions for the Fluo-8 Calcium Flux Assay Kit – NoWash (Abcam, Cambridge, United Kingdom). The F-12 K medium in the plate was removed by inverting the plate and gently blotting on paper towels. […] The calcium fluorescence signal was detected by a CLARIOstar (BMG LABTECH, Chicago, IL, United States) plate reader set to read at the fluorescence plate-mode with excitation and emission wavelengths of 490 and 525 nm at 29 °C. Calcium responses were read immediately after the addition of 10 µL of either TMR-RK8, unlabeled RK8, or blank solvent (1% DMSO in HBSS). […]

[2] = test system: vector-only (V/O) CHO-K1 cells; test: Cellular end-point fluorescence calcium mobilization assay, vector-only control cells; type: cell-based; conditions: 10 µM peptide, Fluo-8, 29 °C, 60 s, 4 technical replicates
Excerpt: Three peptides were used in this study. These included: 1) the ligand for the endogenous tick kinin receptor from Rhipicephalus sanguineus, Rhisa-kinin 8 peptide of sequence GTGEDQAFSPWGamide (Rhisa-K-8; RK8; of identical sequence to Rhimi-K-8 in Rhipicephalus microplus)[48], 2) the same peptide but fluorescently labeled at the N-terminus with tetramethylrhodamine (TMR) a red fluorescent dye, designated TMR-Rhisa-K-8 (TMR-RK8), and 3) a labeled peptide synthesized with the scrambled sequence of the kinin ligand, designated TMR-Scrambled. The sequence of TMR-RK8 was TMR-C-GTGEDQAFSPWGamide). The TMR-Scrambled kinin (TMR-C-GTQWGPGFEADSamide) served as a negative control for tissue labeling. […]
A fluorescence-based intracellular calcium mobilization end-point assay described by Xiong, et al.[50] was used to confirm the activity of the TMR-labeled RK8 peptide on a cell line expressing the tick kinin receptor. […] The calcium fluorescence signal was detected by a CLARIOstar (BMG LABTECH, Chicago, IL, United States) plate reader set to read at the fluorescence plate-mode with excitation and emission wavelengths of 490 and 525 nm at 29 °C. Calcium responses were read immediately after the addition of 10 µL of either TMR-RK8, unlabeled RK8, or blank solvent (1% DMSO in HBSS). […]

[3] = test system: tick kinin receptors on midgut muscles; test: Ligand competition assay on midgut; type: binding, Rhipicephalus sanguineus; conditions: TMR-RK8 10 µM 1 min, then unlabeled RK8 100 µM 1 min, tick saline, confocal 20x
Excerpt: Individual female ticks were immobilized on a Petri dish filled with wax by submerging their legs in melted wax heated with a soldering pencil (Electronic Control Soldering Station EC 1000, Weller, Apex, North Carolina, USA). Females were dissected under physiological saline following the protocol described by Tidwell et al.[51]. The tick was cut along the edge of the scutum/alloscutum using a stainless steel #12 scalpel blade (Integra Miltex, York, PA, USA), after which the scutum was removed with a pair of fine forceps. To expose the midgut for removal, the tracheae, Malpighian tubules, ovaries, rectal sac, and synganglion were removed with fine forceps in that order. The midgut was then carefully removed and placed into 200 µL of fresh tick saline (See Reagents and Peptides) on a single gasketed incubation chamber (500 µL, Size 22 × 40 mm, Electron Microscopy Sciences, Hatfield, PA). […]
Fluorescently-labeled midgut tissues were imaged using a Leica SP8 inverted confocal microscope. For fluorescence excitation, the 405 nm fixed-wavelength laser was used for DAPI and a white light laser selective for wavelengths between 470 and 670 nm was used for tetramethylrhodamine and phalloidin. […] Images were analyzed and computer-colored using Fiji/ImageJ (National Institutes of Health, Bethesda, MD). […]

[4] = test system: R. microplus recombinant receptor; set-up: method as in PMID 31794138; conditions: cited from earlier work

GTGEDQAFSPWG-NH2 [RK8, endogenous ligand of the tick kinin receptor from Rhipicephalus sanguineus, identical to Rhimi-K-8 of R. microplus]
intracellular calcium fluorescence response / receptor activation (in words) ([1]; 10 nM to 10 μM (four concentrations), 1% DMSO in HBSS, Fluo-8, Ex 490/Em 525 nm, 29 °C, read 60 s at 1 s intervals, average raw fluorescence units of 4 technical replicates, simple linear regression): elicited a dose-dependent intracellular calcium fluorescence response | fluorescence units at highest concentration, TMR-RK8 compared with RK8 (in words) ([1]; highest concentration assayed 10 µM, Fluo-8, 4 technical replicates): maximal and similar for the highest concentration assayed of 10 µM | calcium fluorescence response of vector-only cells (in words) [2]: invariable background fluorescence | displacement of TMR-RK8 muscle labeling by unlabeled RK8 (in words) [3]: substantial reduction in the fluorescent signal observed on muscles; also recorded: greatly reduced the fluorescent signal of muscles; also recorded: competitive inhibition of fluorescent signal on muscle tissue | displacement of TMR-RK8 muscle labeling by unlabeled RK8 (in words) ([3]; listed as kinin 8): competed TMR-RK8, decreasing confocal microscopy signal intensity | activity on the R. microplus recombinant receptor (in words) [4]: highly active at the nanomolar level
